Measured values published in the NIST ThermoML archive (doi:10.1016/j.tca.2012.07.004).
± gives the expanded uncertainty stated by the source.

Legend:
[1] = xn = mol fraction of the nth substance listed; conditions: 101 kPa, Liquid, x2 = 0; for mass density: Vibrating tube method; for viscosity: Vibrating wire viscometry; for speed of sound: ultrasonic interferometer
[2] = 101 kPa, Liquid; for mass density: Vibrating tube method; for viscosity: Vibrating wire viscometry; for speed of sound: ultrasonic interferometer

## CN1CCCC1=O [N-methylpyrrolidone] + C[NH+](C)C.O=S(=O)([O-])O
[1]; 298.15 K
  mass density: 1025.9 ± 0.3 kg/m3
  viscosity: 1.66 ± 0.1 mPa·s
  speed of sound: 1572 ± 20 m/s
[1]; 303.15 K
  mass density: 1023.74 ± 0.32 kg/m3
  viscosity: 1.49 ± 0.09 mPa·s
  speed of sound: 1552 ± 20 m/s
[1]; 308.15 K
  mass density: 1019.25 ± 0.32 kg/m3
  viscosity: 1.39 ± 0.08 mPa·s
  speed of sound: 1528 ± 20 m/s
[1]; 313.15 K
  mass density: 1014.74 ± 0.31 kg/m3
  viscosity: 1.31 ± 0.08 mPa·s
  speed of sound: 1520 ± 20 m/s

## CN1CCCC1=O [N-methylpyrrolidone] + CC(=O)[O-].C[NH+](C)C
[1]; 298.15 K
  mass density: 1025.9 ± 0.32 kg/m3
  viscosity: 1.66 ± 0.1 mPa·s
  speed of sound: 1572 ± 20 m/s
[1]; 303.15 K
  mass density: 1023.74 ± 0.32 kg/m3
  viscosity: 1.49 ± 0.09 mPa·s
  speed of sound: 1552 ± 20 m/s
[1]; 308.15 K
  mass density: 1019.25 ± 0.32 kg/m3
  viscosity: 1.39 ± 0.08 mPa·s
  speed of sound: 1528 ± 20 m/s
[1]; 313.15 K
  mass density: 1014.74 ± 0.31 kg/m3
  viscosity: 1.31 ± 0.08 mPa·s
  speed of sound: 1520 ± 20 m/s

## C[NH+](C)C.O=P([O-])(O)O [trimethylammonium dihydrogen phosphate]
[2]; 298.15 K
  mass density: 1353.61 ± 0.69 kg/m3
  viscosity: 7.64 ± 0.46 mPa·s
  speed of sound: 1672 ± 20 m/s
[2]; 303.15 K
  mass density: 1350.62 ± 0.68 kg/m3
  viscosity: 6.46 ± 0.39 mPa·s
  speed of sound: 1660 ± 20 m/s
[2]; 308.15 K
  mass density: 1347.59 ± 0.68 kg/m3
  viscosity: 5.61 ± 0.34 mPa·s
  speed of sound: 1661 ± 20 m/s
[2]; 313.15 K
  mass density: 1344.53 ± 0.68 kg/m3
  viscosity: 5.07 ± 0.31 mPa·s
  speed of sound: 1664 ± 20 m/s

## CCN(CC)CC.O=P(O)(O)O [triethylammonium dihydrogen phosphate]
[2]; 298.15 K
  mass density: 1125.7 ± 0.43 kg/m3
  viscosity: 64.31 ± 3.9 mPa·s
  speed of sound: 1794 ± 20 m/s
[2]; 303.15 K
  mass density: 1124.68 ± 0.43 kg/m3
  viscosity: 57.1 ± 3.4 mPa·s
  speed of sound: 1769 ± 20 m/s
[2]; 308.15 K
  mass density: 1123.71 ± 0.42 kg/m3
  viscosity: 49.53 ± 3 mPa·s
  speed of sound: 1757 ± 20 m/s
[2]; 313.15 K
  mass density: 1122.37 ± 0.42 kg/m3
  viscosity: 38.31 ± 2.3 mPa·s
  speed of sound: 1730 ± 20 m/s

## C[NH+](C)C.O=S(=O)([O-])O [trimethylammonium hydrogen sulfate]
[2]; 298.15 K
  mass density: 1467.58 ± 0.83 kg/m3
  viscosity: 5.1 ± 0.31 mPa·s
  speed of sound: 1564 ± 20 m/s
[2]; 303.15 K
  mass density: 1463.56 ± 0.82 kg/m3
  viscosity: 4.48 ± 0.27 mPa·s
  speed of sound: 1560 ± 20 m/s
[2]; 308.15 K
  mass density: 1463.5 ± 0.82 kg/m3
  viscosity: 3.94 ± 0.24 mPa·s
  speed of sound: 1556 ± 20 m/s
[2]; 313.15 K
  mass density: 1455.63 ± 0.82 kg/m3
  viscosity: 3.16 ± 0.19 mPa·s
  speed of sound: 1552 ± 20 m/s

## CN1CCCC1=O [N-methylpyrrolidone]
[2]; 298.15 K
  mass density: 1025.9 ± 0.32 kg/m3
  viscosity: 1.66 ± 0.1 mPa·s
  speed of sound: 1572 ± 20 m/s
[2]; 303.15 K
  mass density: 1023.74 ± 0.32 kg/m3
  viscosity: 1.49 ± 0.09 mPa·s
  speed of sound: 1552 ± 20 m/s
[2]; 308.15 K
  mass density: 1019.25 ± 0.32 kg/m3
  viscosity: 1.39 ± 0.08 mPa·s
  speed of sound: 1528 ± 20 m/s
[2]; 313.15 K
  mass density: 1014.74 ± 0.31 kg/m3
  viscosity: 1.31 ± 0.08 mPa·s
  speed of sound: 1520 ± 20 m/s

## CN1CCCC1=O [N-methylpyrrolidone] + C[NH+](C)C.O=P([O-])(O)O
[1]; 298.15 K
  mass density: 1025.9 ± 0.32 kg/m3
  viscosity: 1.66 ± 0.1 mPa·s
  speed of sound: 1572 ± 20 m/s
[1]; 303.15 K
  mass density: 1023.74 ± 0.32 kg/m3
  viscosity: 1.49 ± 0.09 mPa·s
  speed of sound: 1552 ± 20 m/s
[1]; 308.15 K
  mass density: 1019.25 ± 0.32 kg/m3
  viscosity: 1.39 ± 0.08 mPa·s
  speed of sound: 1528 ± 20 m/s
[1]; 313.15 K
  mass density: 1014.74 ± 0.31 kg/m3
  viscosity: 1.31 ± 0.08 mPa·s
  speed of sound: 1520 ± 20 m/s

## CC(=O)[O-].C[NH+](C)C [trimethylammonium acetate]
[2]; 298.15 K
  mass density: 1053.85 ± 0.35 kg/m3
  viscosity: 2.76 ± 0.17 mPa·s
  speed of sound: 1544 ± 20 m/s
[2]; 303.15 K
  mass density: 1049.87 ± 0.35 kg/m3
  viscosity: 2.37 ± 0.14 mPa·s
  speed of sound: 1514 ± 20 m/s
[2]; 308.15 K
  mass density: 1045.81 ± 0.35 kg/m3
  viscosity: 2.06 ± 0.12 mPa·s
  speed of sound: 1508 ± 20 m/s
[2]; 313.15 K
  mass density: 1041.7 ± 0.34 kg/m3
  viscosity: 1.83 ± 0.11 mPa·s
  speed of sound: 1490 ± 20 m/s

## CN1CCCC1=O [N-methylpyrrolidone] + CCN(CC)CC.O=P(O)(O)O
[1]; 298.15 K
  mass density: 1025.9 ± 0.32 kg/m3
  viscosity: 1.66 ± 0.1 mPa·s
  speed of sound: 1572 ± 20 m/s
[1]; 303.15 K
  mass density: 1023.74 ± 0.32 kg/m3
  viscosity: 1.49 ± 0.09 mPa·s
  speed of sound: 1552 ± 20 m/s
[1]; 308.15 K
  mass density: 1019.25 ± 0.32 kg/m3
  viscosity: 1.39 ± 0.08 mPa·s
  speed of sound: 1528 ± 20 m/s
[1]; 313.15 K
  mass density: 1014.74 ± 0.31 kg/m3
  viscosity: 1.31 ± 0.08 mPa·s
  speed of sound: 1520 ± 20 m/s
